Results: patent US6043217A, “Amide derivative of amythiamicin” (Zaidan Hojin Biseibutsu Kagaku Kenyu Kai, priority 1996, dated 2000)

Tests used:
Assay type in all cases: cell-based
[1] = test system: Staphylococcus aureus FDA 209P; assay: MIC, standard serial dilution method; details: Muller-Hinton agar medium, 37° C.
[2] = test system: Staphylococcus aureus Smith; assay: MIC, standard serial dilution method; details: Muller-Hinton agar medium, 37° C.
[3] = test system: Staphylococcus aureus MS 9610; assay: MIC, standard serial dilution method; details: Muller-Hinton agar medium, 37° C.
[4] = test system: Staphylococcus aureus No. 5 (MRSA); assay: MIC, standard serial dilution method; details: Muller-Hinton agar medium, 37° C.
[5] = test system: Staphylococcus aureus No. 17 (MRSA); assay: MIC, standard serial dilution method; details: Muller-Hinton agar medium, 37° C.
[6] = test system: Staphylococcus aureus MS 16526; assay: MIC, standard serial dilution method; details: Muller-Hinton agar medium, 37° C.
[7] = test system: Staphylococcus aureus TY-0428; assay: MIC, standard serial dilution method; details: Muller-Hinton agar medium, 37° C.
[8] = test system: Micrococcus luteus FDA 16; assay: MIC, standard serial dilution method; details: Muller-Hinton agar medium, 37° C.
[9] = test system: Micrococcus luteus IFO 3333; assay: MIC, standard serial dilution method; details: Muller-Hinton agar medium, 37° C.
[10] = test system: Micrococcus luteus PIC 1001; assay: MIC, standard serial dilution method; details: Muller-Hinton agar medium, 37° C.
[11] = test system: Bacillus anthracis; details: Muller-Hinton agar medium, 37° C.
[12] = test system: Bacillus subtilis NRRL B-558; assay: MIC, standard serial dilution method; details: Muller-Hinton agar medium, 37° C.
[13] = test system: Bacillus subtilis PCI 219; assay: MIC, standard serial dilution method; details: Muller-Hinton agar medium, 37° C.
[14] = test system: Bacillus cereus ATCC 10702; assay: MIC, standard serial dilution method; details: Muller-Hinton agar medium, 37° C.
[15] = test system: Corynebacterium bovis 1810; assay: MIC, standard serial dilution method; details: Muller-Hinton agar medium, 37° C.
[16] = test system: Escherichia coli NIHJ; assay: MIC, standard serial dilution method; details: Muller-Hinton agar medium, 37° C.
[17] = test system: Escherichia coli K-12; assay: MIC, standard serial dilution method; details: Muller-Hinton agar medium, 37° C.
[18] = test system: Escherichia coli BEM 11; assay: MIC, standard serial dilution method; details: Muller-Hinton agar medium, 37° C.
[19] = test system: Escherichia coli BEM 1121; assay: MIC, standard serial dilution method; details: Muller-Hinton agar medium, 37° C.
[20] = test system: Escherichia coli BE 1186; assay: MIC, standard serial dilution method; details: Muller-Hinton agar medium, 37° C.
[21] = test system: Shigella dysenteria JS 11910; assay: MIC, standard serial dilution method; details: Muller-Hinton agar medium, 37° C.
[22] = test system: Escherichia coli K-12 ML 1692; assay: MIC, standard serial dilution method; details: Muller-Hinton agar medium, 37° C.
Protocol: (§1) The antibacterial activities of the amythiamicin amide derivative of the general formula (I) according to this invention are now concretely described. Compounds No. 1 to No. 11 according to this invention, which were respectively prepared in Examples 1 to 11 hereinafter given, were tested as the test compounds for their minimum inhibitory concentrations (MIC.) (μg/ml) against growth of a variety of test microorganisms by a standard serial dilution method. In the tests, the incubation medium used was Muller-Hinton agar medium and the incubation temperature was 37° C. The test results are shown as antibacterial spectra in the following Tables 2 and 3.

[23] = test system: Shigella clexnerl JS 11749; assay: MIC, standard serial dilution method; details: Muller-Hinton agar medium, 37° C.
Protocol: as §1

[24] = test system: Shigella sonnei JS 11746; assay: MIC, standard serial dilution method; details: Muller-Hinton agar medium, 37° C.
Protocol: as §1

[25] = test system: Salmonella typhi T-63; assay: MIC, standard serial dilution method; details: Muller-Hinton agar medium, 37° C.
[26] = test system: Salmonella enteritidis 1891; assay: MIC, standard serial dilution method; details: Muller-Hinton agar medium, 37° C.
[27] = test system: Proteus vulgaris OX 19; assay: MIC, standard serial dilution method; details: Muller-Hinton agar medium, 37° C.
[28] = test system: Proteus mirabilis IFM OM-9; assay: MIC, standard serial dilution method; details: Muller-Hinton agar medium, 37° C.
[29] = test system: Providencia rettgeri GN 311; assay: MIC, standard serial dilution method; details: Muller-Hinton agar medium, 37° C.
[30] = test system: Providencia rettgeri GN 466; assay: MIC, standard serial dilution method; details: Muller-Hinton agar medium, 37° C.
[31] = test system: Serratia marcescens; assay: MIC, standard serial dilution method; details: Muller-Hinton agar medium, 37° C.
[32] = test system: Pseudomonas aeruginosa A3; assay: MIC, standard serial dilution method; details: Muller-Hinton agar medium, 37° C.
[33] = test system: Pseudomonas aeruginosa GN315; assay: MIC, standard serial dilution method; details: Muller-Hinton agar medium, 37° C.
[34] = test system: Klebsiella pneumonia PCI 602; assay: MIC, standard serial dilution method; details: Klebsiella pneumonia PCI 602 (Table 2); Muller-Hinton agar medium, 37° C.
[35] = test system: Candida albicans 3147; assay: MIC, standard serial dilution method; details: Muller-Hinton agar medium, 37° C.

SMILES | Minimum growth inhibitory concentrations (MIC.) [1] | Minimum growth inhibitory concentrations (MIC.) [2] | Minimum growth inhibitory concentrations (MIC.) [3] | Minimum growth inhibitory concentrations (MIC.) [4] | Minimum growth inhibitory concentrations (MIC.) [5] | Minimum growth inhibitory concentrations (MIC.) [6] | Minimum growth inhibitory concentrations (MIC.) [7] | Minimum growth inhibitory concentrations (MIC.) [8] | Minimum growth inhibitory concentrations (MIC.) [9] | Minimum growth inhibitory concentrations (MIC.) [10] | Minimum growth inhibitory concentrations (MIC.) [11] | Minimum growth inhibitory concentrations (MIC.) [12] | Minimum growth inhibitory concentrations (MIC.) [13] | Minimum growth inhibitory concentrations (MIC.) [14] | Minimum growth inhibitory concentrations (MIC.) [15] | Minimum growth inhibitory concentrations (MIC.) [16] | Minimum growth inhibitory concentrations (MIC.) [17] | Minimum growth inhibitory concentrations (MIC.) [18] | Minimum growth inhibitory concentrations (MIC.) [19] | Minimum growth inhibitory concentrations (MIC.) [20] | also measured
CNC(=O)CC1NC(=O)c2csc(n2)-c2ccc(-c3nc(C(=O)NCCCCCC(=O)OC)cs3)nc2-c2csc(n2)-c2csc(n2)C(C(C)C)NC(=O)CNC(=O)c2csc(n2)C(C(C)C)NC(=O)c2nc1sc2C (stereo not shown) [Compound No. 1] | 50 µg/mL | > 100 µg/mL | > 100 µg/mL | > 100 µg/mL | > 100 µg/mL | > 100 µg/mL | > 100 µg/mL | > 100 µg/mL | > 100 µg/mL | 3.13 µg/mL | 0.98 µg/mL | > 100 µg/mL | > 100 µg/mL | 3.13 µg/mL | > 100 µg/mL | > 100 µg/mL | > 100 µg/mL | > 100 µg/mL | > 100 µg/mL | > 100 µg/mL | Minimum growth inhibitory concentrations (MIC.) [21]: > 100 µg/mL; Minimum growth inhibitory concentrations (MIC.) [22]: > 100 µg/mL; Minimum growth inhibitory concentrations (MIC.) [23]: > 100 µg/mL; Minimum growth inhibitory concentrations (MIC.) [24]: > 100 µg/mL; Minimum growth inhibitory concentrations (MIC.) [25]: > 100 µg/mL; Minimum growth inhibitory concentrations (MIC.) [26]: > 100 µg/mL; Minimum growth inhibitory concentrations (MIC.) [27]: > 100 µg/mL; Minimum growth inhibitory concentrations (MIC.) [28]: > 100 µg/mL; Minimum growth inhibitory concentrations (MIC.) [29]: > 100 µg/mL; Minimum growth inhibitory concentrations (MIC.) [30]: > 100 µg/mL; Minimum growth inhibitory concentrations (MIC.) [31]: > 100 µg/mL; Minimum growth inhibitory concentrations (MIC.) [32]: > 50 µg/mL; Minimum growth inhibitory concentrations (MIC.) [33]: > 100 µg/mL; Minimum growth inhibitory concentrations (MIC.) [34]: > 100 µg/mL; Minimum growth inhibitory concentrations (MIC.) [35]: > 100 µg/mL
CNC(=O)CC1NC(=O)c2csc(n2)-c2ccc(-c3nc(C(=O)NCCCCCC(=O)O)cs3)nc2-c2csc(n2)-c2csc(n2)C(C(C)C)NC(=O)CNC(=O)c2csc(n2)C(C(C)C)NC(=O)c2nc1sc2C (stereo not shown) [Compound No. 2] | 0.1 µg/mL | 0.1 µg/mL | 0.2 µg/mL | 0.2 µg/mL | 0.2 µg/mL | 0.2 µg/mL | 0.2 µg/mL | 0.39 µg/mL | 0.39 µg/mL | 0.1 µg/mL | < 0.03 µg/mL | 1.56 µg/mL | 0.2 µg/mL | 0.1 µg/mL | 0.31 µg/mL | > 100 µg/mL | > 100 µg/mL | > 100 µg/mL | > 100 µg/mL | > 100 µg/mL | Minimum growth inhibitory concentrations (MIC.) [21]: 3.13 µg/mL; Minimum growth inhibitory concentrations (MIC.) [22]: > 100 µg/mL; Minimum growth inhibitory concentrations (MIC.) [23]: > 100 µg/mL; Minimum growth inhibitory concentrations (MIC.) [24]: > 100 µg/mL; Minimum growth inhibitory concentrations (MIC.) [25]: > 100 µg/mL; Minimum growth inhibitory concentrations (MIC.) [26]: 6.25 µg/mL; Minimum growth inhibitory concentrations (MIC.) [27]: > 100 µg/mL; Minimum growth inhibitory concentrations (MIC.) [28]: > 100 µg/mL; Minimum growth inhibitory concentrations (MIC.) [29]: > 100 µg/mL; Minimum growth inhibitory concentrations (MIC.) [30]: > 100 µg/mL; Minimum growth inhibitory concentrations (MIC.) [31]: > 100 µg/mL; Minimum growth inhibitory concentrations (MIC.) [32]: > 50 µg/mL; Minimum growth inhibitory concentrations (MIC.) [33]: > 100 µg/mL; Minimum growth inhibitory concentrations (MIC.) [34]: > 100 µg/mL; Minimum growth inhibitory concentrations (MIC.) [35]: > 100 µg/mL
